Measurements from US20080311126A1, “Antisense Oligonucleotides Directed to Ribonucleotide Reducatase R2 and Uses Thereof in Combination Therapies for the Treatment of Cancer” (Genesense Technologies, Inc, priority 2004, published 2008).

What was measured:
Type in all cases: in vivo
[1] = test system: Caki-1 human renal cancer cells; assay: Caki-1 renal tumour xenograft in SCID mice, SEQ ID NO:1 and chemotherapeutics; details: Caki (renal); Mouse CD-1
Description: Caki-1 human renal cancer cells (1×10^7 cells in […] of PBS) were subcutanteously injected into the right flank of 6-7 weeks old female SCID mice. After the size of tumour reached an approximate volume of 200 mm^3, 7 days post tumour cell injection, SEQ ID NO:1 was administered by bolus infusion into the tail vein every other day at 10 mg/kg. Control animals received saline alone for the same period. The antitumour effect of SEQ ID NO:1 was further compared to that of two chemotherapeutic agents: 5-FU and vinblastine. 5-FU was administered intraperitoneally at days 7-13, 21-27 and 35-36 with a dose of 13 mg/kg/day, while vinblastin was administered intraperitoneally at days 7, 14, 21, 28 and 35 at a dose of 0.6 mg/kg/week. Antitumour effects of each of these compounds were further compared to those of SEQ ID NO:1 in combination with 5-FU or with vinblastin. The two chemotherapeutic agents were applied as described above, one hour after the treatments with SEQ ID NO:1 when combination treatments occurred on the same day. All treatments were stopped at day 36. A day after the last treatment, tumours were excised from the animals and their weights were measured.

[2] = test system: A498 human renal carcinoma; assay: A498 renal tumour xenograft in SCID mice, SEQ ID NO:1 and interferon alpha
Description: (§1) Cell line: Human renal carcinoma cell line (A498) was grown as monolayer culture in Minimum essential medium (α-MEM) supplemented with 10% fetal bovine serum (FBS), 0.1 mM non-essential amino acid, 1.0 mM sodium pyruvate, 100 U/ml penicillin, 100 μg/ml streptomycin and 0.25 μg/ml amphotericin B and 2 mM L-alanyl-1-glutamine at 37° C. in an atmosphere of 5% CO2 in air. The tumour cells were routinely subcultured twice weekly by trypsin-EDTA treatment. The cells were harvested from subconfluent logarithmically growing culture by treatment with trypsin-EDTA and counted for tumour inoculation.
(§2) Tumour Inoculation: An acclimation period of at least 7 days was allowed between animal receipt and commencement of tumour inoculation. When the female SCID mice were 6-7 weeks of age (20-25 g), each mouse was subcutaneously injected with 9×10^6 A498 human renal carcinoma cells in 0.1 ml of PBS at the right flank of the mice to induce tumour growth.
Dose Preparation and Treatment: The dose for SEQ ID NO:1 was formulated using the following procedure. From a concentrated stock solution (usually prepared in ddH2O at a concentration of 50 mg/ml and kept at −80° C.), SEQ ID NO:1 was diluted with saline to achieve a final target concentration of 1 or 2.5 mg/ml on the first day of dosing. Enough SEQ ID NO:1 was diluted so that the compound could be administered by bolus infusion into the tail vein every other day for the duration of the experiment. Recombinant interferon alfa-2b (ntron A™) was employed according to the dose and treatment schedules below. The treatments were started 20 days after the tumour cell inoculation when the tumour size reached an approximate volume of 200 mm^3. Each treatment group contained 10 tumour-bearing mice. Routes of administration are as follows: intravenous (i.v.) and intratumoural (i.t.).
• 1. Saline treated group-1: saline 0.1 ml/mouse/48 hours, i.v., n=10 • 2. Saline treated group-2: saline 0.05 ml/mouse/5 days/week, i.t., n=10 • 3. SEQ ID NO:1 treated group: 1 mg/kg/48 hours in 0.1 ml saline, i.v. n=10 • 4. SEQ ID NO:1 treated group: 2.5 mg/kg/48 hours in 0.1 ml saline, i.v., n=10 • 5. […]
Treatment started from day 20 after inoculation of human renal tumour cells. […]
Endpoints: The effects of SEQ ID NO:1 and Intron A on tumour growth was determined. Tumour sizes were measured every week from day 20 after the tumour cell inoculation in two dimensions using a caliper, and the volume was expressed in mm^3 using the formula: V=0.5 a×b^2, where a and b are the long and short diameters of the tumour, respectively. Mean tumour volumes calculated from each measurement were then plotted in a standard graph to compare the anti-tumour efficacy to that of controls. A day after the last treatment, tumours were excised from the animals and their weights were measured. […]

[3] = test system: Caki-1 human renal carcinoma; assay: Caki-1 renal tumour xenograft in SCID mice, SEQ ID NO:1 and interferon alpha
Description: as §1, with “Line:” for “line:”, “(Caki-1)” for “(A498)”, “(FEBS),” for “(FBS),”, “L-alanyl-L-glutamine” for “L-alanyl-1-glutamine”
as §2, with “subcutaneously (s.c.)” for “subcutaneously”, “5×10^6 Caki-1” for “9×10^6 A498”
Dose-Preparation and Treatment: The dose for SEQ ID NO:1 was formulated using the following procedure. From a concentrated stock solution (usually prepared in ddH2O at a concentration of 50 mg/ml and kept at −80° C.), SEQ ID NO:1 was diluted with saline to achieve a final target concentration of 1 or 2.5 mg/ml on the first day of dosing. Enough SEQ ID NO:1 was diluted so that the compound could be administered by bolus infusion into the tail vein every other day for the duration of the experiment. Recombinant interferon alfa-2b (Intron A™) was utilized according to the dose and treatment schedules below. The treatments were started 7 days after the tumour cell inoculation when the tumour size reached an approximate volume of 125 mm^3. Each treatment group contained 10 tumour-bearing mice. Routes of administration are indicated as follows: intravenous (i.v.) and intratumoural (i:t.).
Groups and Treatments: The following treatment groups were evaluated: • 1. Saline treated group-1: saline 0.1 ml/mouse/48 hours, i.v., n=10 • 2. Saline treated group-2: saline 0.05 ml/mouse/5 days/week, i.t., n=10 • 3. […] Intron A 10^3 unit/5 days/week treated group: 10^3 unit Intron A in 0.05 ml saline, i.t., n=10 • 6. Intron A 10^5 unit/5 days/week treated group: 10^5 unit Intron A in 0.05 ml saline, i.t., n=10 • 7. SEQ ID NO:1 1 mg/kg Plus Intron A 10^3 treated group: “3+5”, n=10 • 8. SEQ ID NO:1 1 mg kg Plus Intron A 10^5 treated group: “3+6”, n=10 • 9. SEQ ID NO:1 2.5 mg/kg Plus Intron A […], n=10 • 10. SEQ ID NO:1 2.5 mg/kg Plus Intron A 10^5 treated group: “4+6”, n=10
Mice received 25 treatments with SEQ ID NO:1 and 30 treatments with Intron A. The dosing schedule for Intron A was: treatment with Intron A for 3 consecutive weeks, 1 week off, and treatment with Intron A again for another 3 consecutive weeks. The dosing schedule for SEQ ID NO:1 was treatment with SEQ ID NO:1 every other day for the duration of the experiment.
Endpoints: The effects of SEQ ID NO:1 and Intron A on tumour growth were determined. Tumour sizes were measured every week from day 7 after the tumour cell inoculation in two dimensions using a caliper, and the volume was expressed in mm^3 using the formula: V=0.5 a×b^2, where a and b are the long and short diameters of the tumour, respectively. Mean tumour volumes calculated from each measurement were then plotted in a standard graph to compare the anti-tumour efficacy to that of controls. A day after the last treatment, tumours were excised from the animals and their weights were measured.
A second independent in vivo study was conducted as described in Example 1 utilizing SCID mice (female, 6 weeks old) and Caki-1 (human renal carcinoma cell line) to test the efficacy of SEQ ID NO:1 in combination with IFN alpha Briefly, 5×10^6 Caki-1 human renal carcinoma cells in 0.1 ml of PBS were injected subcutaneously at the right flank of the mice to induce tumour growth. Treatments started on the seventh day after tumour cell injection. […]

Row | Molecule | Tumour weight as % of saline control [1] | anti-tumour efficacy (tumour volume, tumour weight) ([2]; Example 6, SEQ ID NO:1 1 or 2.5 mg/kg/48 hours i.v., Intron A 10^3 or 10^5 unit 5 days/week i.t.) | anti-tumour efficacy (tumour volume, tumour weight) ([2]; Example 7, SEQ ID NO:1 2.5 mg/kg/2ds i.v., 10000 units Intron A x5/week for 2 weeks i.t.) | anti-tumour efficacy (tumour volume, tumour weight) ([3]; Example 2, SEQ ID NO:1 1 or 2.5 mg/kg/48 hours i.v., Intron A 10^3 or 10^5 unit 5 days/week i.t.) | anti-tumour efficacy (tumour volume, tumour weight) ([3]; Example 3, SEQ ID NO:1 2.5 or 5 mg/kg every 2 days i.v., Intron 10^5 unit 5 days/week i.t.) | anti-tumour efficacy (tumour volume, tumour weight) ([3]; Example 4, oligonucleotide 2.5 mg/kg every 2 days i.v., Intron A 10^5 unit 5 days/week i.t.) | efficacy in combination with SEQ ID NO:1, subcutaneous versus intratumoural ([3]; Example 5, SEQ ID NO:1 2.5 mg/kg/2 days i.v. plus 100000 units Intron A x3/week s.c. or i.t.)
1 | O=c1[nH]cc(F)c(=O)[nH]1 [5-FU, 5-fluorouracil, reference compound] | 52% | – | – | – | – | – | –
2 | Recombinant interferon alfa-2b [Intron A] | – | significant anti-tumour efficacy | significant anti-tumour efficacy | significant anti-tumour efficacy | significant anti-tumour efficacy | significant anti-tumour efficacy | equally effective
